# Results from patent publication US6156789A, “Method for treating abnormal cell proliferation in the brain” (Rhone-Poulenc Rorer S.A., priority 1998, dated 2000).
# Several values for one entry are separate records, joined by “and”; a condition that tells them apart may be missing. Equal values may be shown once. Read-outs that look alike come from different tables or passages of the source.
# Experiment: Tissue distribution of Compound A in mice with mammary C/16 adenocarcinomas (first method: liver, heart, kidney, lung, spleen, tumor)
# Type: in vivo, C3H/HeN female mice
# Design: key to Percentage of Compound A (of dose) in Liver / Percentage of Compound A (of dose) in Heart / Percentage of Compound A (of dose) in Kidney / Percentage of Compound A (of dose) in Lung / Percentage of Compound A (of dose) in Spleen / Percentage of Compound A (of dose) in Tumor: --: not detected
# Details: for Kp at 0.5 h: 0.50 h
# Procedure: Mammary C/16 adenocarcinomas were implanted in C3H/HeN female mice. At least 7 days later, 4α,10β-diacetoxy-2α-benzoyloxy-5β,20-epoxy-1β-hydroxy-7β,8β-methylene-9-oxo-19-nor-11-taxen-13α-yl (2R,3S)-3-tert-butoxycarbonylamino-2-hydroxy-3-phenylpropionate ("Compound A") was administered to groups of female mice at doses of 9.5, 15.4, 24.8, 40 or 60.5 mg/kg by intravenous injection under 0.4 or 0.5 ml/injection over 15 seconds. The body weight and date of implantation were recorded for each mouse. Blood and tissue samples were taken 2, 5, 15, 30 and 45 minutes and 1, 4, 14, 24 and 48 hours, after administration. The plasma was separated from the blood samples at 4° C. and frozen immediately. The tissue and tumors were weighed and frozen immediately (-20° C.).
# The plasma and tissue samples were then analyzed for the concentration of Compound A. The plasma was assayed by high pressure liquid chromatography with spectrophotometric detection. For the tissue, liver, heart, kidney, lung, spleen and tumor tissue, samples were assayed by a first method, while a second method was used for the brain tissue analyzed. In the first method, 0.2 g of tissue was combined with 2 ml of sodium phosphate buffer 0.1 M (pH:7) and homogenized. The homogenate was centrifuged and 0.5 ml of supernatant was injected into the chromatographic column. In the second method, 10 μl of standard solution was combined with 0.2 g of brain tissue. 2 ml of methanol/5% perchloric acid (50/50) were added and the mixture was homogenized. The homogenate was centrifuged and 100 μl of supernatant was injected into the chromatographic column.
# [1] = 0.033 h, 40 μg/kg [sic], mice with tumors, single mice, 40 mg/kg, 1.98 min
# [2] = mouse, heart/plasma, iv, 40 mg/kg, mice with tumors, single mice, read-out: Tissue/Plasma Ratio, HEART
# [3] = mouse, kidney/plasma, iv, 40 mg/kg, 40 μg/kg [sic], mice with tumors, single mice, read-out: Tissue/Plasma Ratio, KIDNEY
compound,measurement,setting,value
"CC(=O)O[C@H]1C(=O)[C@]23C[C@H]2C[C@H]2OC[C@@]2(OC(C)=O)[C@H]3[C@H](OC(=O)c2ccccc2)[C@]2(O)C[C@H](OC(=O)[C@H](O)[C@@H](NC(=O)OC(C)(C)C)c3ccccc3)C(C)=C1C2(C)C [Compound A, 4α,10β-diacetoxy-2α-benzoyloxy-5β,20-epoxy-1β-hydroxy-7β,8β-methylene-9-oxo-19-nor-11-taxen-13α-yl (2R,3S)-3-tert-butoxycarbonylamino-2-hydroxy-3-phenylpropionate]",distribution in tissues sampled,40 mg/kg i.v.,quickly distributed in all tissues sampled
same,percentage (concentration) in sampled tissue over time,"40 mg/kg i.v., first few hours, except tumor and brain tissue","fell off rapidly over the first few hours following drug administration, except in the tumor and brain tissue"
same,uptake of the drug,"40 mg/kg i.v., mice with mammary carcinoma",fast uptake of the drug
same,drug present at 0.033 h cleared in one hour,"40 mg/kg i.v., rapid phase, except tumor and brain tissue",70%
same,"Tissue/Plasma Ratio, KIDNEY",[1],1.25 and 1.20
same,"Tissue/Plasma Ratio, LIVER",[1],0.91
same,"Tissue/Plasma Ratio, SPLEEN",[1],0.42 and 0.43 and 0.41
same,Percentage of Compound A (of dose) in Heart,"0.033 h, 40 mg/kg",0.46%
same,Percentage of Compound A (of dose) in Kidney,"0.033 h, 40 mg/kg",2.06%
same,Percentage of Compound A (of dose) in Liver,"0.033 h, 40 mg/kg",9.73%
same,Percentage of Compound A (of dose) in Lung,"0.033 h, 40 mg/kg",0.67%
same,Percentage of Compound A (of dose) in Spleen,"0.033 h, 40 mg/kg",0.27%
same,Percentage of Compound A (of dose) in Tumor,"0.033 h, 40 mg/kg",1.07%
same,"Percentage of Compound A (of dose) in tissues, Total","0.033 h, 40 mg/kg",14.45%
same,"Tissue/Plasma Ratio, LUNG","0.083 h, 40 μg/kg [sic], mice with tumors, single mice, 40 mg/kg, 4.98 min",0.69
same,Percentage of Compound A (of dose) in Heart,"1 h, 40 mg/kg",0.08%
same,Percentage of Compound A (of dose) in Kidney,"1 h, 40 mg/kg",0.56%
same,Percentage of Compound A (of dose) in Liver,"1 h, 40 mg/kg",2.10%
same,Percentage of Compound A (of dose) in Lung,"1 h, 40 mg/kg",0.18%
same,Percentage of Compound A (of dose) in Spleen,"1 h, 40 mg/kg",0.10%
same,Percentage of Compound A (of dose) in Tumor,"1 h, 40 mg/kg",0.94%
same,"Percentage of Compound A (of dose) in tissues, Total","1 h, 40 mg/kg",4.37%
same,Percentage of Compound A (of dose) in Heart,"4 h, 40 mg/kg",0.03%
same,Percentage of Compound A (of dose) in Kidney,"4 h, 40 mg/kg",0.23%
same,Percentage of Compound A (of dose) in Liver,"4 h, 40 mg/kg",0.47%
same,Percentage of Compound A (of dose) in Lung,"4 h, 40 mg/kg",0.08%
same,Percentage of Compound A (of dose) in Spleen,"4 h, 40 mg/kg",0.05%
same,Percentage of Compound A (of dose) in Tumor,"4 h, 40 mg/kg",0.37%
same,"Percentage of Compound A (of dose) in tissues, Total","4 h, 40 mg/kg",1.62%
same,Percentage of Compound A (of dose) in Heart,"24 h, 40 mg/kg",--
same,Percentage of Compound A (of dose) in Kidney,"24 h, 40 mg/kg",--
same,Percentage of Compound A (of dose) in Liver,"24 h, 40 mg/kg",--
same,Percentage of Compound A (of dose) in Lung,"24 h, 40 mg/kg",--
same,Percentage of Compound A (of dose) in Spleen,"24 h, 40 mg/kg",--
same,Percentage of Compound A (of dose) in Tumor,"24 h, 40 mg/kg",0.09%
same,"Percentage of Compound A (of dose) in tissues, Total","24 h, 40 mg/kg",0.42%
same,Percentage of Compound A (of dose) in Heart,"48 h, 40 mg/kg",--
same,Percentage of Compound A (of dose) in Kidney,"48 h, 40 mg/kg",--
same,Percentage of Compound A (of dose) in Liver,"48 h, 40 mg/kg",--
same,Percentage of Compound A (of dose) in Lung,"48 h, 40 mg/kg",--
same,Percentage of Compound A (of dose) in Spleen,"48 h, 40 mg/kg",--
same,Percentage of Compound A (of dose) in Tumor,"48 h, 40 mg/kg",--
same,"Percentage of Compound A (of dose) in tissues, Total","48 h, 40 mg/kg",0.19%
same,"AUC 0-4 Hours, Heart",dose = 40 mg/kg,24.8 µg·h/g
same,"AUC 0-4 Hours, Kidney",dose = 40 mg/kg,74.4 µg·h/g
same,"AUC 0-4 Hours, Liver",dose = 40 mg/kg,70.8 µg·h/g
same,"AUC 0-4 Hours, Lung",dose = 40 mg/kg,34.3 µg·h/g
same,"AUC 0-4 Hours, Spleen",dose = 40 mg/kg,34.6 µg·h/g
same,"AUC 0-4 Hours, Tumor",dose = 40 mg/kg,35.6 µg·h/g
same,"AUC 0 to Infinity, Heart",dose = 40 mg/kg,28 µg·h/g
same,"AUC 0 to Infinity, Kidney",dose = 40 mg/kg,121 µg·h/g
same,"AUC 0 to Infinity, Liver",dose = 40 mg/kg,93 µg·h/g
same,"AUC 0 to Infinity, Lung",dose = 40 mg/kg,52 µg·h/g
same,"AUC 0 to Infinity, Spleen",dose = 40 mg/kg,80 µg·h/g
same,"AUC 0 to Infinity, Tumor",dose = 40 mg/kg,107 µg·h/g
same,half-life,"mouse, heart, iv, 40 mg/kg, read-out: t 1/2, Heart (converted)",96 min
same,Tmax,"mouse, heart, iv, 40 mg/kg i.v., read-out: time of maximum concentration, heart",1.98 min
same,Kp at 0.033 h,"mouse, heart/plasma, iv, 40 mg/kg, 0.033 h, mice with tumors, single mice, read-out: Tissue/Plasma Ratio, HEART",0.45
same,Kp at 0.083 h,"mouse, heart/plasma, iv, 40 mg/kg, 0.083 h, mice with tumors, single mice, read-out: Tissue/Plasma Ratio, HEART",0.98
same,Kp at 0.25 h,[2],0.65
same,Kp at 0.5 h,[2],0.88
same,Kp at 0.75 h,[2],0.87
same,Kp at 1 h,"mouse, heart/plasma, iv, 40 mg/kg, 1 h, mice with tumors, single mice, read-out: Tissue/Plasma Ratio, HEART",0.77
same,half-life,"mouse, kidney, iv, 40 mg/kg, 40 mg/kg i.v., read-out: half-life of the distribution phase, kidney (converted)",3 min
same,half-life,"mouse, kidney, iv, 40 mg/kg, read-out: t 1/2, Kidney (converted)",162 min
same,Tmax,"mouse, kidney, iv, 40 mg/kg i.v., read-out: time of maximum concentration, kidney",1.98 min
same,Kp at 0.033 h,"mouse, kidney/plasma, iv, 40 mg/kg, 0.033 h, 40 μg/kg [sic], mice with tumors, single mice, read-out: Tissue/Plasma Ratio, KIDNEY",1.7
same,Kp at 0.083 h,"mouse, kidney/plasma, iv, 40 mg/kg, 0.083 h, 40 μg/kg [sic], mice with tumors, single mice, read-out: Tissue/Plasma Ratio, KIDNEY",2.4
same,Kp at 0.25 h,[3],1.35
same,Kp at 0.5 h,[3],1.88
same,Kp at 0.75 h,[3],2.44
